{"source": "patent US4847247A", "about": "“Penicillin derivatives as anti-inflammatory and antidegenerative agents” (Merck & Co., Inc., priority 1986, dated 1989)"}
{"biological_target": "T1, Human Polymorphonuclear Leukocyte Elastase (Homo sapiens, UniProt P08246)", "T1 construct": "Crude extract of human polymorphonuclear leukocytes (PMN) containing elastase activity; endogenous in cells; host or cells: human polymorphonuclear leukocytes (crude extract)", "T1 sequence (P08246 30-247 limits assumed)": "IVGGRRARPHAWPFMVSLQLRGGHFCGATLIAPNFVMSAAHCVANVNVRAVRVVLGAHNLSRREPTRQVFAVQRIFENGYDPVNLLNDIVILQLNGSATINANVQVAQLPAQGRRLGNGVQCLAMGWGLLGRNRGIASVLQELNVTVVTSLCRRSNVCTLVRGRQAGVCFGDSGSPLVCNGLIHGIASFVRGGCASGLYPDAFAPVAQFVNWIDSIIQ", "experiment": "Inhibition of human polymorphonuclear leukocyte (granulocyte) elastase via hydrolysis of Boc-AAPAN", "assay_type": "biochemical", "details": "not given", "description": "(§1) Enzyme assay for the Inhibition of Human Polymorphonuclear Leukocyte Elastase Via Hydrolysis of N-t-Boc-alanyl-alanyl-prolylalanine-p-nitroanilide\n(§2) 0.05M TES (N-tris[hydroxymethyl]methyl-2-amino-ethanesulfonic acid) buffer, pH 7.5.\n(§3) 0.2 mM N-t-Boc-alanyl-alanyl-prolyl-alanine-p-nitroanilide (Boc-AAPAN).\n(§4) To prepare substrate, the solid (m.w. 550) was first dissolved in 10.0 ml DMSO. Buffer at pH 7.5 was then added to a final volume of 100 ml.\n(§5) Crude extract of human polymorphonuclear leukocytes (PMN) containing elastase activity.\n(§6) Inhibitors (cephalosporin sulfoxide esters) to be tested dissolved in DMSO just before use.\n(§7) To 1.0 ml of 0.2 mM Boc-AAPAN in a cuvette, 0.01-0.1 ml of DMSO with or without inhibitor was added. After mixing, a measurement was taken at 410 mμ to detect any spontaneous hydrolysis due to of test compound. 0.05 Milliliters of PMN extract was then added and the αOD/minute at 410 mμ was measured and recorded. Beckman model 35 spectrophotometer was used.\n(§8) The elastase activity in the crude PMN extract may vary from one preparation to another. A control of each new batch is run, and the volume added in the assay procedure is adjusted according to activity.", "units": {"IC50": "µM"}}
{"smiles": "Cc1ccc(S(=O)(=O)OC2C(=O)N3[C@@H](C(=O)OCc4ccccc4)C(C)(C)S(=O)(=O)[C@H]23)cc1", "note": "(some centres unmarked) [p-CH3 C6 H4 SO2 O(TsO) / 2 / OBZ]", "IC50": 0.101}
{"smiles": "CCO[C@H]1C(=O)N2[C@@H](C(=O)OCc3ccc(C(=O)O)cc3)C(C)(C)S(=O)(=O)[C@H]12", "note": "[6α-OC2 H5 / 2 / OBZ(p-COOH)]", "IC50": 1.46}
{"smiles": "CC1(C)[C@H](C(=O)OCc2ccccc2)N2C(=O)[C@@H](NC(=O)C(F)(F)F)[C@H]2S1(=O)=O", "note": "[6β-CF3 CONH / 2 / OBZ]", "IC50": 4.6}
{"smiles": "CC1(C)[C@H](C(=O)OCc2ccccc2)N2C(=O)[C@@H](COC(=O)NCc3ccccc3)[C@H]2S1(=O)=O", "note": "[6β-CH2 O(CO)NH(BZ) / 2 / OBZ]", "IC50": 1.44}
{"biological_target": "T1, Human Polymorphonuclear Leukocyte Elastase", "experiment": "Inhibition of human polymorphonuclear leukocyte (granulocyte) elastase via hydrolysis of Boc-AAPAN", "assay_type": "biochemical", "details": "crude human PMN extract, 0.2 mM Boc-AAPAN, pH 7.5, 410 mμ, 2 minutes after zero time; read-out: IC50 (dosage for 50% inhibition of the enzyme activity) (converted)", "description": "as §1, §2, §3, §4, §5, §6, §7, §8", "units": {"IC50": "µM"}}
{"smiles": "C[C@@H](OC(=O)OCc1ccccc1)[C@H]1C(=O)N2[C@@H](C(=O)OCc3ccccc3)C(C)(C)S(=O)(=O)[C@H]12", "note": "[drawing 29 / 2 / OBZ]", "IC50": 0.0997}
{"smiles": "CC1(C)S[C@@H]2C(OC(=O)COc3ccccc3)C(=O)N2[C@H]1C(=O)OCc1ccccc1", "note": "(some centres unmarked) [C6 H5 OCH2 COO / 0 / OBZ]", "IC50": 45.3}
{"smiles": "Cc1ccc(S(=O)(=O)N[C@H]2C(=O)N3[C@@H](C(=O)OCc4ccccc4)C(C)(C)S(=O)(=O)[C@H]23)cc1", "note": "[6α-(TS)NH / 2 / OBZ]", "IC50": 0.406}
{"smiles": "CO[C@H]1C(=O)N2[C@@H](C(=O)OCc3ccccc3)C(C)(COC(C)=O)S(=O)(=O)[C@H]12", "note": "(stereo partly drawn) [α-CH3 O / 2 / OBZ]", "IC50": "9.72 to 14.6"}
{"smiles": "CO[C@H]1C(=O)N2[C@@H](C(=O)OCC(=O)OC(C)(C)C)C(C)(C)S(=O)(=O)[C@H]12", "note": "[6α-OCH3 / 2 / OCH2 COOtBu]", "IC50": 7.95}
{"smiles": "CO[C@]1(NC(=O)C(F)(F)F)C(=O)N2[C@@H](C(=O)OCc3ccccc3)C(C)(C)S(=O)(=O)[C@@H]21", "note": "[α-CF3 CONH / β-CH3 O / 2 / OBZ]", "IC50": 1.72}
{"smiles": "CC1(C)[C@H](C(=O)OCc2ccccc2)N2C(=O)C(OC(=O)COc3ccccc3)[C@H]2[S+]1[O-]", "note": "(some centres unmarked) [C6 H5 OCH2 COO / 1 / OBZ]", "IC50": 10.9}
{"smiles": "CC[C@@]1(NC(=O)C(F)(F)F)C(=O)N2[C@@H](C(=O)OCc3ccccc3)C(C)(C)S(=O)(=O)[C@@H]21", "note": "[β-CF3 CONH / α-C2 H5 / 2 / OBZ, benzyl 6α-ethyl-6β-trifluoroacetamidopenicillanate-1,1-dioxide]", "IC50": 6.49}
{"smiles": "CN(CC(=O)O)C(=O)[C@@H]1N2C(=O)[C@H](NC(=O)C(F)(F)F)[C@H]2S(=O)(=O)C1(C)C", "note": "[6α-CF3 (CO)NH / 2 / N(CH3)(CH2 COOH)]", "IC50": 12}
{"smiles": "CC1(C)[C@H](C(=O)OCc2ccccc2)N2C(=O)[C@H](OCc3ccccc3)[C@H]2S1(=O)=O", "note": "[6α-OBZ / 2 / OBZ]", "IC50": 9.31}
{"smiles": "CC1(C)[C@H](C(=O)c2ccccc2)N2C(=O)[C@@H](NC(=O)C(F)(F)F)[C@H]2S1(=O)=O", "note": "[6β-CF3 CONH / 2 / Ph]", "IC50": 2.47}
{"smiles": "CCC1(N(C)C(=O)C(F)(F)F)C(=O)N2C1[S+]([O-])C(C)(C)C2C(=O)OCc1ccccc1", "note": "(stereo not drawn) [β-CF3 CON(CH3) / α-C2 H5 / 1 / OBZ]", "IC50": 43.4}
{"smiles": "CCO[C@H]1C(=O)N2[C@@H](C(=O)OCc3ccccc3)C(C)(C)S(=O)(=O)[C@H]12", "note": "[6α-OC2 H5 / 2 / OBZ, Benzyl 6α-ethoxypenicillanate-1,1-dioxide]", "IC50": 5.44}
{"smiles": "CC(C)(C)OC(=O)c1ccc(COC(=O)[C@@H]2N3C(=O)[C@H](NC(=O)C(F)(F)F)[C@H]3S(=O)(=O)C2(C)C)cc1", "note": "[6α-CF3 (CO)NH / 2 / OBZ(p-COOtBu)]", "IC50": 0.187}
{"smiles": "CN(Cc1ccccc1)C(=O)[C@@H]1N2C(=O)[C@@H](NC(=O)C(F)(F)F)[C@H]2S(=O)(=O)C1(C)C", "note": "[6β-CF3 (CO)NH / 2 / N(CH3)(BZ), 2,2-Dimethyl-6-(trifluoro-acetamido)-3-(N-methyl-N-benzylcarbamoyl)penam-1,1-dioxide]", "IC50": 4.47}
{"smiles": "CO[C@H]1C(=O)N2[C@@H]1[S+]([O-])C(C)(COC(C)=O)[C@@H]2C(=O)OCc1ccccc1", "note": "(stereo partly drawn) [α-CH3 O / 1 / OBZ]", "IC50": 10.1}
{"smiles": "CN(Cc1ccc(C(=O)O)cc1)C(=O)[C@@H]1N2C(=O)[C@H](NC(=O)C(F)(F)F)[C@H]2S(=O)(=O)C1(C)C", "note": "[6α-CF3 (CO)NH / 2 / N(CH3)BZ(p-COOH)]", "IC50": 1.42}
{"smiles": "CC1(C)[C@H](C(=O)OCc2ccc(C(=O)O)cc2)N2C(=O)[C@@H](NC(=O)C(F)(F)F)[C@H]2S1(=O)=O", "note": "[6β-CF3 (CO)NH / 2 / OBZ(p-COOH)]", "IC50": 2.09}
{"smiles": "CC1(C)S[C@@H]2[C@@H](NC(=O)C(F)(F)F)C(=O)N2[C@H]1C(=O)OCc1ccccc1", "note": "[6α-CF3 CONH / 0 / OBZ, Benzyl 6α-trifluoroacetamidopenicillanate]", "IC50": 9.94}
